Assay results taken from patent US10227331B2 (priority 2015, dated 2019).

Experiments:
IMP-1 = IMP-1 (Serratia marcescens, UniProt P52699); experiment: biochemical; type: biochemical; settings: CCF2-FA substrate, 2 hours at 25° C; read-out: IMP-1 IC50
How it was run: (§1)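 Enzyme activity was measured by fluorescence using CCF2-FA, a cephalosporin-linked 7-hydroxycoumarin/fluorescein substrate, with inhibitor, metallo-β-lactamase and substrate incubated together for 2 hours at 25° C. IC50 came from a 4-parameter fit of inhibition versus log inhibitor concentration.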

NDM-1 = NDM-1 (Klebsiella pneumoniae, UniProt C7C422); experiment: biochemical; type: biochemical; settings: CCF2-FA substrate, 2 hours at 25° C; read-out: NDM-1 IC50
How it was run: as §1

VIM-1 = VIM-1 (Pseudomonas aeruginosa (strain ATCC 15692 / DSM 22644 / CIP 104116 / JCM 14847 / LMG 12228 / 1C / PRS 101 / PAO1), UniProt A0A0F7KYQ8); experiment: biochemical; settings: CCF2-FA substrate, 2 hours at 25° C
How it was run: as §1

[1] = test system: Escherichia coli expressing NDM-1 (CLB30005, CLB30016); type: cell-based; settings: with imipenem 1 μg/ml; 95% inhibition of bacterial growth
How it was run: (§2)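 Restoration of imipenem susceptibility (1 μg/ml imipenem) was judged by absorbance after 22–24 h at 35° C. Test compound was added to bacteria suspended 1:100 in 1.1× CAMHB from overnight blood-agar cultures.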

[2] = test system: Klebsiella pneumoniae expressing VIM-1 (IHMA599644); type: cell-based; settings: with imipenem 1 μg/ml; 95% inhibition of bacterial growth
How it was run: as §2

[3] = test system: Serratia marcescens expressing IMP-1 (CL5741); type: cell-based; settings: with imipenem 1 μg/ml; 95% inhibition of bacterial growth
How it was run: as §2

[4] = test system: P. aeruginosa expressing IMP-1, efflux+ (MB9798); type: cell-based, Pseudomonas aeruginosa; settings: for P. aeruginosa expressing IMP-1, efflux+ (MB9798) MITC95: imipenem at 2 μg/mL, in the presence of a class A, C, D serine β-lactamase inhibitor closely related to relebactam; for Efflux ratio: ratio MITC95 PA_9798/MITC95 PA_9799
Description: (§3) The strain background is Pseudomonas aeruginosa PAO1.

[5] = test system: P. aeruginosa expressing IMP-1, efflux− (MB9799); experiment: Efflux: concentration of MBL inhibitor which restores susceptibility to imipenem; type: cell-based, Pseudomonas aeruginosa; settings: imipenem at 2 μg/mL, in the presence of a class A, C, D serine β-lactamase inhibitor closely related to relebactam
Description: as §3

Chain of IMP-1 (P52699 whole entry, looked up, species assumed): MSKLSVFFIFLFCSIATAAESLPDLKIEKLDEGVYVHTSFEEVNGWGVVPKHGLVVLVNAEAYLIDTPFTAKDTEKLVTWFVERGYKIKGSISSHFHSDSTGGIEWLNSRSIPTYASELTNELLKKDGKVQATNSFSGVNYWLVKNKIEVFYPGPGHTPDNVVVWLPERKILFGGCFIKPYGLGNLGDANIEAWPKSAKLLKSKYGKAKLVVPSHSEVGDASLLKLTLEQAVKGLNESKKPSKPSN
Chain of NDM-1 (C7C422 whole entry, looked up, species assumed): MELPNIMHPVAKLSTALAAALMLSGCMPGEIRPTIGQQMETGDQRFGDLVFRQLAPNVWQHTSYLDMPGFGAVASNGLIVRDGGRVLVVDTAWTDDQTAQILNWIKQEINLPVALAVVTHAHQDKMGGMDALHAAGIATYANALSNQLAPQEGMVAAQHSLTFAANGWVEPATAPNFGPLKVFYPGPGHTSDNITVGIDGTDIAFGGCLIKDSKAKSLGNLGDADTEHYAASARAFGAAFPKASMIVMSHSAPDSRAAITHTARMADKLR

SMILES	IC50 (IMP-1) [nM]	IC50 (NDM-1) [nM]	IC50 (VIM-1) [nM]	Escherichia coli expressing NDM-1 (CLB30016) MITC95 [1] [µM]	Klebsiella pneumoniae expressing VIM-1 (IHMA599644) MITC95 [2] [µM]	Serratia marcescens expressing IMP-1 (CL5741) MITC95 [3] [µM]	P. aeruginosa expressing IMP-1, efflux+ (MB9798) MITC95 [4] [µM]	Efflux ratio [4]	P. aeruginosa expressing IMP-1, efflux− (MB9799) MITC95 [5] [µM]
NS(=O)(=O)c1c(S(=O)(=O)C2CCNCC2)ccc([C@H]2CC[C@H](N)CC2)c1-c1nnn[nH]1 [Example 207, 3-((1r,4r)-4-aminocyclohexyl)-6-(piperidin-4-ylsulfonyl)-2-(1H-tetrazol-5-yl) benzenesulfonamide]	24.6	15.9	0.71	2.344	3.125	3.125	3.125	2.00	1.563
NS(=O)(=O)c1c(S(=O)(=O)C2CCNCC2)ccc([C@H]2CC[C@@H](N)CC2)c1-c1nnn[nH]1 [Example 208, 3-((1s,4s)-4-aminocyclohexyl)-6-(piperidin-4-ylsulfonyl)-2-(1H-tetrazol-5-yl) benzenesulfonamide]	124	20.6	18.6	1.563	6.25	3.125	6.25	2.00	3.125
CS(=O)(=O)c1ccc([C@H]2CC[C@@H](N)CC2)c(-c2nnn[nH]2)c1S(N)(=O)=O [Example 209, 3-((1s,4s)-4-aminocyclohexyl)-6-(methylsulfonyl)-2-(1H-tetrazol-5-yl) benzenesulfonamide]	65.3	16.4	52.1	3.125	25	6.25	50	16.00	3.125
CS(=O)(=O)c1ccc([C@H]2CC[C@H](N)CC2)c(-c2nnn[nH]2)c1S(N)(=O)=O [Example 210, 3-((1r,4r)-4-aminocyclohexyl)-6-(methylsulfonyl)-2-(1H-tetrazol-5-yl) benzenesulfonamide]	7.76	32.2	0.566	3.125	3.125	1.563	12.5	16.00	0.7813
CCCS(=O)(=O)c1ccc(C2=CCC(N)CC2)c(-c2nnn[nH]2)c1S(N)(=O)=O (stereo not drawn) [Example 211, 4′-amino-4-(propylsulfonyl)-2-(1H-tetrazol-5-yl)-2′,3′,4′,5′-tetrahydro-[1,1′-biphenyl]-3-sulfonamide]	6.32	24.3	0.785	12.5	25	6.25	50	31.99	1.563
NS(=O)(=O)c1c(S(=O)(=O)C2CNC2)ccc([C@H]2CC[C@H](N)CC2)c1-c1nnn[nH]1 [Example 212, 3-((1r,4r)-4-aminocyclohexyl)-6-(azetidin-3-ylsulfonyl)-2-(1H-tetrazol-5-yl) benzenesulfonamide]	30.2	11.3	0.864	0.7813	1.563	1.563	1.563	2.00	0.7813
NS(=O)(=O)c1c(S(=O)(=O)C2CNC2)ccc([C@H]2CC[C@@H](N)CC2)c1-c1nnn[nH]1 [Example 213, 3-((1s,4s)-4-aminocyclohexyl)-6-(azetidin-3-ylsulfonyl)-2-(1H-tetrazol-5-yl) benzenesulfonamide]	68.3	12.9	7.04	1.563	3.125	1.563	6.25	4.00	1.563
Nc1nc2cccc(-c3ccc(S(=O)(=O)C4CNC4)c(S(N)(=O)=O)c3-c3nn[nH]n3)n2n1 [Example 214, 3-(2-amino-[1,2,4]triazolo[1,5-a]pyridin-5-yl)-6-(azetidin-3-ylsulfonyl)-2-(2H-tetrazol-5-yl)benzenesulfonamide]	3.32	0.139	0.221	3.125	6.25	3.125	3.125	2.00	1.563
Nc1nc2ccc(-c3ccc(S(=O)(=O)C4CNC4)c(S(N)(=O)=O)c3-c3nn[nH]n3)cn2n1 [Example 215, 3-(2-amino-[1,2,4]triazolo[1,5-a]pyridin-6-yl)-6-(azetidin-3-ylsulfonyl)-2-(2H-tetrazol-5-yl)benzenesulfonamide]	2.19	0.239	0.298	3.125	6.25	3.125	6.25	2.00	3.125
Nc1nc2c(-c3ccc(S(=O)(=O)C4CNC4)c(S(N)(=O)=O)c3-c3nn[nH]n3)cccn2n1 [Example 216, 3-(2-amino-[,2,4]triazolo[1,5-a]pyridin-8-yl)-6-(azetidin-3-ylsulfonyl)-2-(2H-tetrazol-5-yl)benzenesulfonamide]	1.66	0.102	0.151	12.5	6.25	3.125	6.25	4.00	1.563
Nc1nc2cc(-c3ccc(S(=O)(=O)C4CNC4)c(S(N)(=O)=O)c3-c3nn[nH]n3)ccn2n1 [Example 217, 3-(2-amino-[1,2,4]triazolo[1,5-a]pyridin-7-yl)-6-(azetidin-3-ylsulfonyl)-2-(2H-tetrazol-5-yl) benzenesulfonamide]	3.81	1.49	0.313	6.25	6.25	3.125	12.5	8.00	1.563
NS(=O)(=O)c1c(S(=O)(=O)C2CNC2)ccc(C2=CCS(=O)(=O)CC2)c1-c1nn[nH]n1 [Example 218, 6-(azetidin-3-ylsulfonyl)-3-(1,1-dioxido-3,6-dihydro-2H-thiopyran-4-yl)-2-(2H-tetrazol-5-yl) benzenesulfonamide]	3.55	1.75	2.23	0.3906	3.125	1.563	12.5	8.00	1.563
Nc1ncccc1-c1ccc(S(=O)(=O)C2CNC2)c(S(N)(=O)=O)c1-c1nn[nH]n1 [Example 219, 3-(2-aminopyridin-3-yl)-6-(azetidin-3-ylsulfonyl)-2-(2H-tetrazol-5-yl) benzenesulfonamide]	5.66	0.647	0.52	0.125	1.281	0.6406	6.25	4.88	1.281
